Assay results reported in patent publication US9540355B2, “Irciniastatin analogues” (priority 2013, dated 2017).

How the values were obtained:
H522-T1 = experiment: Cell growth inhibition assay (CellTiter-Glo); assay type: cell-based, human; conditions: for IC50: Homo sapiens, 96 h, 4 days incubation; for Selectivity vs. IMR-90, H522-T1: ratio IC50[IMR-90]:IC50[tumor cell line]
Experimental: (§1) Cell Culture and Cell Growth Inhibition Assay.
(§2) The chosen cell lines are all human cancer cell lines except for the 4T1 murine breast cancer line, representing a wide variety of cancer types including breast (MDA-MB-453), kidney (A498), lung (H1975), pancreatic (PANC-1) and endometrial cancer (AN3CA, HEC-1A, and RL95-2), glioblastoma (U251 and U-87MG), melanoma (A2058 and LOXIMVI) and uterine sarcoma (MES-SA). All the cancer cell lines can be obtained from the American Type Culture Collection (ATCC, Manassas, Va., USA) with the exception of U251 which can be provided by the National Cancer Institute Tumor Repository (Frederick, Md.) and is cultured in the standard tissue culture media appropriate for each cell line. All the culture media are supplemented with 10% fetal bovine serum (FBS), 100 I.U./mL penicillin and 100 μg/mL streptomycin. For the cell growth inhibition assay, the cells are seeded in 96-well tissue culture plates at 500-3000 cells/well (seeding density empirically adjusted for each cell line based on growth rate optimization). The cells are allowed to attach for a minimum of 5 h prior to compound administration. The cells are incubated for a period of 4 days after compound addition. Following the incubation period, CellTiter-Glo reagent (Promega, Madison, Wis., USA) is added to all the wells to assess cell proliferation/viability. Luminescence is measured using an Envision microplate reader (Perkin Elmer, Waltham, Mass., USA). The IC50 values were calculated as the concentration which inhibited cell growth to 50% of DMSO control treated cell populations.

A2058 = experiment: Cell growth inhibition assay (CellTiter-Glo); assay type: cell-based, human; conditions: for IC50: Homo sapiens, 96 h, 4 days incubation; for Selectivity vs. IMR-90, A2058: ratio IC50[IMR-90]:IC50[tumor cell line]
Experimental: as §1, §2

[1] = tested on: IMR-90 human fibroblast cells; experiment: IMR-90 cytotoxicity assay; assay type: cell-based; conditions: IMR-90, 72 h, read-out: IC50 (nM) Quiescent IMP-90
Excerpt: IMR-90 Cytotoxicity Assay.
To evaluate the effect of compounds of the invention on non-proliferating normal cells, an in vitro cytotoxicity assay developed to distinguish between true antiproliferative activity and general cellular cytotoxicity unrelated to proliferation was used. Rudolph-Owen L A, Salvato K, Cheng C, Wu J, Towle M J and Littlefield B A: A 96-well plate cell-based assay to quantify undesired cytotoxic effects against quiescent non-dividing cells. Proc Amer Assoc Cancer Res 45: 264-265, 2004. In brief, IMR-90 human fibroblast cells, obtained from ATCC, were grown for 4 days to confluency in MEM containing 10% FBS and supplemented with L-glutamine, penicillin/streptomycin. After washing, the medium was replaced with complete MEM containing 0.1% FBS and the cells were cultured for 3 additional days to achieve complete quiescence. A compound of the invention or vehicle control was then added in the continued presence of 0.1% FBS, followed by incubation for 3 days at 37° C. Cell viability was assessed by the measurement of cellular ATPlevels using CellTiter-Glo reagent (Promega).

translation = conditions: in vitro assay; mean ± standard deviation; read-out: translation inhibition (EC50 nM) in vitro assay; cited from earlier work
Hela [2] = conditions: cell-based assay, read-out: translation inhibition (EC50 nM) cell-based assay Hela; cited from earlier work
SK-MEL-S [3] = conditions: read-out: cytotoxicity (IC50 nM) SK-MEL-S, CellTiter-Glo, mean ± standard deviation; cited from earlier work
SK-MEL-S [4] = conditions: cell-based assay, read-out: translation inhibition (EC50 nM) cell-based assay SK-MEL-S; cited from earlier work
Hela [5] = conditions: read-out: cytotoxicity (IC50 nM) Hela, CellTiter-Glo, mean ± standard deviation; cited from earlier work
HCT-116 = experiment: Cell growth inhibition assay (CellTiter-Glo); assay type: cell-based, human; conditions: for IC50: Homo sapiens, 96 h, 4 days incubation; for Selectivity vs. IMR-90, HCT-116: ratio IC50[IMR-90]:IC50[tumor cell line]
Experimental: as §1, §2

MCF-7 = conditions: breast MCF-7; cited from earlier work
SF-268 = conditions: CNS SF-268; cited from earlier work
KM20L2 = conditions: colon KM20L2; cited from earlier work
[6] = tested on: P388 murine lymphocytic leukemia cell line; conditions: cited from earlier work
BXPC-3 = conditions: pancreas BXPC-3; cited from earlier work
NCI-H460 = conditions: lung NCI-H460; cited from earlier work
DU-145 = conditions: prostate DU-145; cited from earlier work
H226 = conditions: H226, lung; cited from earlier work
ACHN = conditions: kidney; cited from earlier work
MKN45 = conditions: MKN45, gastric; cited from earlier work
HOP62 = conditions: HOP62, lung; cited from earlier work
PC3 = conditions: PC3, prostate; cited from earlier work
SW620 = conditions: SW620, colon; cited from earlier work
DU145 = conditions: DU145, prostate; cited from earlier work
MB231 = conditions: MB231, breast; cited from earlier work
NHDF = conditions: normal; cited from earlier work

| Compound | IC50 (H522-T1) [nM] | Selectivity vs. IMR-90, H522-T1 (H522-T1) | IC50 (A2058) [nM] | Selectivity vs. IMR-90, A2058 (A2058) | IC50 [1] [nM] | EC50 (translation) [nM] | EC50 (Hela [2]) [nM] | IC50 (SK-MEL-S [3]) [nM] | EC50 (SK-MEL-S [4]) [nM] | IC50 (Hela [5]) [nM] | also measured |
| --- | --- | --- | --- | --- | --- | --- | --- | --- | --- | --- | --- |
| C=C(C)C[C@H](OC)[C@H](O)C(=O)N[C@@H](OC)[C@@H]1C/C(=N/OC)C(C)(C)[C@@H](C[C@H](O)[C@@H](C)[C@H]2Cc3c(C)c(O)cc(O)c3C(=O)O2)O1 (stereo in doubt) [C(11)-O-Methyloxime-Irciniastatin B] | 0.8 | 58 | 0.5 | 92 | 46 |  |  |  |  |  |  |
| C=C(C)C[C@H](OC)[C@H](O)C(=O)N[C@@H](OC)[C@@H]1C[C@@H](O)C(C)(C)[C@@H](C[C@H](O)[C@@H](C)C2Cc3c(C)c(O)cc(O)c3C(=O)O2)O1 (stereo partly shown) [1a] |  |  |  |  |  | 28 ± 7 | 22 ± 1.4 | 0.27 ± 0.04 | 33 ± 10 | 0.64 ± 0.14 |  |
| C=C(C)C[C@H](OC)[C@H](O)C(=O)N[C@@H](OC)[C@@H]1CC(=C)C(C)(C)[C@@H](C[C@H](O)[C@@H](C)[C@H]2Cc3c(C)c(O)cc(O)c3C(=O)O2)O1 [C(11)-Exomethylene-Irciniastatin B] | 1.6 | 31 | 0.7 | 70 | 49 |  |  |  |  |  | IC50 (HCT-116): 1 nM; Selectivity vs. IMR-90, HCT-116 (HCT-116): 49 |
| C=C(C)C[C@H](OC)[C@H](O)C(=O)N[C@@H](OC)[C@@H]1C[C@@H](OC(C)=O)C(C)(C)[C@@H](C[C@H](O)[C@@H](C)[C@H]2Cc3c(C)c(O)cc(O)c3C(=O)O2)O1 [C(11)-OAc-Irciniastatin A] | 0.7 | 39 | 0.4 | 68 | 27 |  |  |  |  |  | IC50 (HCT-116): 2 nM; Selectivity vs. IMR-90, HCT-116 (HCT-116): 14 |
| C=C(C)C[C@H](OC)[C@H](O)C(=O)N[C@@H](OC)[C@@H]1C[C@@H](OC(=O)c2ccccc2)C(C)(C)[C@@H](C[C@H](O)[C@@H](C)[C@H]2Cc3c(C)c(O)cc(O)c3C(=O)O2)O1 [C(11)-Obz-Irciniastatin A, C(11)-OBz-Irciniastatin A] | 5.4 | 15 | 2.7 | 30 | 81 |  |  |  |  |  |  |
| C=C(C)C[C@H](OC)[C@H](O)C(=O)N[C@@H](OC)[C@@H]1CC(=O)C(C)(C)[C@@H](C[C@H](O)[C@@H](C)[C@H]2Cc3c(C)c(O)cc(O)c3C(=O)O2)O1 [Irciniastatin B, (−)-Irciniastatin B] | 0.8 | 71 | 0.5 | 114 | 57 |  |  |  |  |  | Growth Inhibition of Cancer Cell Lines (GI50) (MCF-7): 0.5 ng/mL; Growth Inhibition of Cancer Cell Lines (GI50) (SF-268): 0.66 ng/mL; Growth Inhibition of Cancer Cell Lines (GI50) (KM20L2): 2.1 ng/mL; IC50 (HCT-116): 3 nM; Selectivity vs. IMR-90, HCT-116 (HCT-116): 19; Growth Inhibition of Cancer Cell Lines (GI50) [6]: 6 ng/mL; Growth Inhibition of Cancer Cell Lines (GI50) (BXPC-3): 0.73 ng/mL; Growth Inhibition of Cancer Cell Lines (GI50) (NCI-H460): 1.2 ng/mL; Growth Inhibition of Cancer Cell Lines (GI50) (DU-145): 1.6 ng/mL |
| C=C(C)C[C@@H](OC)[C@H](O)C(=O)N[C@@H](OC)[C@@H]1C[C@@H](O)C(C)(C)[C@@H](C[C@H](O)[C@@H](C)C2Cc3c(C)c(O)cc(O)c3C(=O)O2)O1 (stereo partly shown) [compound 3] |  |  |  |  |  | 346 ± 64 | 4950 ± 4870 | 352 ± 12.1 | 495 | 614 ± 267 |  |
| C=C(C)C[C@H](OC)[C@H](O)C(=O)N[C@H](OC)[C@@H]1C[C@@H](O)C(C)(C)[C@@H](C[C@H](O)[C@@H](C)C2Cc3c(C)c(O)cc(O)c3C(=O)O2)O1 (stereo partly shown) [compound 4] |  |  |  |  |  | 318 ± 182 | 2200 ± 1410 | 763 ± 70 | 843 | > 1000 |  |
| C=C(C)C[C@H](OC)[C@H](O)C(=O)N[C@@H](OC)[C@@H]1C[C@@H](O)C(C)(C)[C@@H](C[C@H](O)COC)O1 [compound 5] |  |  |  |  |  | 641 ± 262 | 1650 ± 1060 | > 1000 | 578 | > 1000 |  |
| C=C(C)C[C@H](OC)[C@H](O)C(=O)N[C@H](OC)[C@@H]1C[C@@H](O)C(C)(C)[C@@H](C[C@H](O)COC)O1 [compound 6] |  |  |  |  |  | > 10000 | > 10000 | > 1000 | > 10000 | > 1000 |  |
| Cc1c(O)cc(O)c2c1CC([C@H](C)[C@@H](O)C[C@H]1O[C@H](C(N)=O)C[C@@H](O)C1(C)C)OC2=O (stereo partly shown) [compound 7] |  |  |  |  |  | > 10000 | > 10000 | > 1000 | > 10000 | > 1000 |  |
| C=C1C[C@](OC)([C@H](O)C(=O)NC2OCO[C@H]3[C@@H]2O[C@H](C[C@H](O)CO)C(C)(C)[C@@H]3OC)O[C@H](C)[C@@H]1C (stereo partly shown) [compound 8] |  |  |  |  |  | 238 ± 44 | 59 ± 32 | 3.79 ± 0.04 | 64 | 2.52 ± 1.39 |  |
| C[C@@H]1C[C@@H]([C@H](O)CC2CC(=O)NC(=O)C2)C(=O)[C@@H](C)C1 [cycloheximide] |  |  |  |  |  | 3150 ± 2350 | 3320 ± 434 | 3130 ± 764 | 2670 | 2290 ± 1520 |  |
| C=C(C)C[C@H](OC)[C@H](O)C(=O)N[C@@H](OC)[C@@H]1C[C@H](O)C(C)(C)[C@@H](C[C@H](O)[C@@H](C)[C@H]2Cc3c(C)c(O)cc(O)c3C(=O)O2)O1 [epi-C(11)-Irciniastatin A] | 0.9 | 38 | 0.4 | 85 | 34 |  |  |  |  |  | IC50 (HCT-116): 3 nM; Selectivity vs. IMR-90, HCT-116 (HCT-116): 11 |
| C11-Deoxyirciniastatin [compound 29] |  |  |  |  |  |  |  |  |  |  | IC50 (H226): 0.034 ± 0.004 nM; IC50 (ACHN): 0.265 ± 0.008 nM; IC50 (MKN45): 0.076 ± 0.004 nM; IC50 (HOP62): 0.055 ± 0.002 nM; IC50 (PC3): 0.073 ± 0.006 nM; IC50 (SW620): 0.16 ± 0.015 nM; IC50 (DU145): 0.149 ± 0.005 nM; IC50 (MB231): 0.142 ± 0.007 nM; IC50 (NHDF): 0.066 ± 0.004 nM |
